Tests used:
IDO1 = target: T1, IDO1 (Homo sapiens, UniProt P14902); test: HeLa cell-based IDO1/kynurenine assay; details: for inhibition at 30 µM: percentage inhibition at 30 μM, IFN-γ-treated HeLa cells, kynurenine in media; for IC50: HeLa cells, IFN-γ induced IDO1, kynurenine readout
T1 construct: a human cervical cancer cell line HeLa that endogenously expresses IDO1 upon IFN-γ treatment; endogenous in cells; host or cells: HeLa cells treated with human IFN-γ
Experimental: (§1) The main bioassays performed in the study, including HeLa cell-based IDO1/kynurenine assay, Western blot analysis, T cell proliferation and Treg cell differentiation experiments, were carried out as described previously.
It is well known that IDO1 is broadly expressed in human cancers and is induced by pro-inflammatory cytokines, such as interferon gamma (IFN-γ) and tumour necrosis factor alpha (TNF-α)[41]. Here we utilised a human cervical cancer cell line HeLa that endogenously expresses IDO1 upon IFN-γ treatment to evaluate the IDO1 inhibitory activity of the synthesised compounds by measuring kynurenine secreted into the media. […] Thus, we also employed this cellular assay to detect false positive IDO1 inhibitors and cytotoxic compounds by measuring HeLa cell viability. Clinical candidate navoximod was used as an assay control.

IDO1 protein expression = test: Western blot of IDO1 protein expression in IFN-γ-treated HeLa cells; type: cell-based, human; details: HeLa cells, IFN-γ 100 ng/mL 24 h, then compounds at their IC50 concentrations for 24 h
Experimental: as §1
To exclude the possibility that these secondary sulphonamides inhibit IDO1 activity by down-regulating IDO1 expression, we utilised Western blot to measure the expression of IDO1 protein in HeLa cells treated with different compounds.
Figure 3. […] (B) The greyscale scanning statistical results of A. (C) HeLa cells were incubated with compound 5d (3, 10, 30 μM) for 24 h. (D) The greyscale scanning statistical results of C. (E) HeLa cells were incubated with compound 5d (3, 10, 30 μM) for 48 h. (F) The greyscale scanning statistical results of E. Data are presented as means ± SEM (n = 3).

T1 sequence (P14902 whole entry): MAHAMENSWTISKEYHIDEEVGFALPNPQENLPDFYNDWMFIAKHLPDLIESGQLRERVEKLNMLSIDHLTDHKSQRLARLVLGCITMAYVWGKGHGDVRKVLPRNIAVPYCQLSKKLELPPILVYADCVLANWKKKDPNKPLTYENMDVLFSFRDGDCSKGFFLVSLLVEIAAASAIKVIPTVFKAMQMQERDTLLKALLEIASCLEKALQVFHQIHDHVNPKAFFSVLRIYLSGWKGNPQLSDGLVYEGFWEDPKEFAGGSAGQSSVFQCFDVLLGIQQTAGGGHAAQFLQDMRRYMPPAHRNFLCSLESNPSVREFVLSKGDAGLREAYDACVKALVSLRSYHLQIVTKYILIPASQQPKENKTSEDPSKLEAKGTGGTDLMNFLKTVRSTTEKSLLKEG

Row | SMILES | inhibition at 30 µM (IDO1) [%] | melting point [°C] | IC50 (IDO1) [µM] | expression of IDO1 protein (IDO1 protein expression)
1 | CC(=O)Nc1ccc(S(=O)(=O)Nc2ccccc2)cc1 [3a, N-(4-(N-Phenylsulfamoyl)phenyl)acetamide] | 3.9 | 204 to 206 | – | –
2 | CC(=O)Nc1ccc(S(=O)(=O)Nc2ccc(C)cc2)cc1 [3b, N-(4-(N-(p-Tolyl)sulfamoyl)phenyl)acetamide] | 16.3 | – | – | –
3 | CC(=O)Nc1ccc(S(=O)(=O)Nc2ccc(C(C)C)cc2)cc1 [3c, N-(4-(N-(4-Isopropylphenyl)sulfamoyl)phenyl)acetamide] | 5.9 | 186 to 188 | – | –
4 | CC(=O)Nc1ccc(S(=O)(=O)Nc2cccc(C(C)C)c2)cc1 [3d, N-(4-(N-(3-Isopropylphenyl)sulfamoyl)phenyl)acetamide] | 14.6 | 158 to 160 | – | –
5 | CC(=O)Nc1ccc(S(=O)(=O)NCc2ccccc2)cc1 [3e, N-(4-(N-Benzylsulfamoyl)phenyl)acetamide] | 2.5 | – | – | –
6 | CC(=O)Nc1ccc(S(=O)(=O)NCc2ccc(Cl)cc2)cc1 [3f, N-(4-(N-(4-Chlorobenzyl)sulfamoyl)phenyl)acetamide] | 13.5 | 172 to 174 | – | –
7 | CC(=O)Nc1ccc(S(=O)(=O)NCc2ccc(C(F)(F)F)cc2)cc1 [3g, N-(4-(N-(4-(Trifluoromethyl)benzyl)sulfamoyl)phenyl)acetamide] | 14.5 | 186 to 188 | – | –
8 | CC(=O)Nc1ccc(S(=O)(=O)NCc2cccc(C(F)(F)F)c2)cc1 [3h, N-(4-(N-(3-(Trifluoromethyl)benzyl)sulfamoyl)phenyl)acetamide] | 7.8 | 154 to 156 | – | –
9 | CC(=O)Nc1ccc(S(=O)(=O)NCCc2ccccc2)cc1 [3i, N-(4-(N-Phenethylsulfamoyl)phenyl)acetamide] | 5.9 | 130 to 132 | – | –
10 | Nc1ccc(S(=O)(=O)Nc2ccccc2)cc1 [4a, 4-Amino-N-phenylbenzenesulfonamide] | 12 | – | – | –
11 | Cc1ccc(NS(=O)(=O)c2ccc(N)cc2)cc1 [4b, 4-Amino-N-(p-tolyl)benzenesulfonamide] | 10.8 | – | – | –
12 | Nc1ccc(S(=O)(=O)NCc2ccccc2)cc1 [4c, 4-Amino-N-benzylbenzenesulfonamide] | 7.4 | – | – | –
13 | Nc1ccc(S(=O)(=O)NCc2ccc(Cl)cc2)cc1 [4d, 4-Amino-N-(4-chlorobenzyl)benzenesulfonamide] | -4.2 | 172 to 174 | – | –
14 | Nc1ccc(S(=O)(=O)NCc2cccc(Cl)c2)cc1 [4e, 4-Amino-N-(3-chlorobenzyl)benzenesulfonamide] | 2.3 | 119 to 121 | > 50 | –
15 | Nc1ccc(S(=O)(=O)NCCc2ccccc2)cc1 [4f, 4-Amino-N-phenethylbenzenesulfonamide] | 3.1 | – | – | –
16 | C=CC(=O)Nc1ccc(S(=O)(=O)NCc2ccccc2)cc1 [5a, N-(4-(N-Benzylsulfamoyl)phenyl)acrylamide] | 62.5 | 116 to 118 | 22.4 | –
17 | C=CC(=O)Nc1ccc(S(=O)(=O)NCc2ccc(OC)cc2)cc1 [5b, N-(4-(N-(4-Methoxybenzyl)sulfamoyl)phenyl)acrylamide] | 36 | 156 to 158 | 40.1 | –
18 | C=CC(=O)Nc1ccc(S(=O)(=O)NCc2ccc(Cl)cc2)cc1 [5c, N-(4-(N-(4-Chlorobenzyl)sulfamoyl)phenyl)acrylamide] | 40.4 | 190 to 192 | 36.2 | –
19 | C=CC(=O)Nc1ccc(S(=O)(=O)NCCc2ccccc2)cc1 [5e, N-(4-(N-Phenethylsulfamoyl)phenyl)acrylamide] | 55.2 | 154 to 156 | 26.3 | –
20 | C=CC(=O)Nc1ccc(S(=O)(=O)NCc2ccc(C(F)(F)F)cc2)cc1 [5f, N-(4-(N-(4-(Trifluoromethyl)benzyl)sulfamoyl)phenyl)acrylamide] | 38.2 | 198 to 200 | 39.2 | –
21 | C=CC(=O)Nc1ccc(S(=O)(=O)NCc2cccc(C(F)(F)F)c2)cc1 [5g, N-(4-(N-(3-(Trifluoromethyl)benzyl)sulfamoyl)phenyl)acrylamide] | 49.5 | 152 to 154 | 30.5 | –
22 | C=CC(=O)Nc1ccc(S(=O)(=O)NCc2ccc(F)cc2)cc1 [5h, N-(4-(N-(4-Fluorobenzyl)sulfamoyl)phenyl)acrylamide] | 70.9 | 178 to 180 | 20.5 | –

The next lines start with results.

Row | inhibition at 30 µM (IDO1) [%] | melting point [°C] | IC50 (IDO1) [µM] | SMILES | expression of IDO1 protein (IDO1 protein expression)
23 | 37.8 | 152 to 154 | 39.5 | C=CC(=O)Nc1ccc(S(=O)(=O)NCc2cccc(F)c2)cc1 [5i, N-(4-(N-(3-Fluorobenzyl)sulfamoyl)phenyl)acrylamide] | –
24 | 65.1 | 178 to 180 | 22.7 | C=CC(=O)Nc1ccc(S(=O)(=O)NCc2ccccc2Cl)cc1 [5j, N-(4-(N-(2-Chlorobenzyl)sulfamoyl)phenyl)acrylamide] | –
25 | 37.5 | 194 to 196 | 42.1 | C=CC(=O)Nc1ccc(S(=O)(=O)NCc2ccc(Br)cc2)cc1 [5k, N-(4-(N-(4-Bromobenzyl)sulfamoyl)phenyl)acrylamide] | –
26 | 44 | 148 to 150 | 37.3 | C=CC(=O)Nc1ccc(S(=O)(=O)NCc2ccc(Cl)c(Cl)c2)cc1 [5m, N-(4-(N-(3,4-Dichlorobenzyl)sulfamoyl)phenyl)acrylamide] | –
27 | 85.9 | 212 to 213 | 13.2 | C=CC(=O)Nc1ccc(S(=O)(=O)Nc2ccccc2)cc1 [8a, N-(4-(N-Phenylsulfamoyl)phenyl)acrylamide] | –
28 | 25.3 | 230 to 232 | – | C=CC(=O)Nc1ccc(S(=O)(=O)Nc2ccc(C)cc2)cc1 [8b, N-(4-(N-(p-Tolyl)sulfamoyl)phenyl)acrylamide] | –
29 | 20.9 | 234 to 235 | – | C=CC(=O)Nc1ccc(S(=O)(=O)Nc2ccc(OC)cc2)cc1 [8c, N-(4-(N-(4-Methoxyphenyl)sulfamoyl)phenyl)acrylamide] | –
30 | 74.8 | 197 to 199 | 13.4 | C=CC(=O)Nc1ccc(S(=O)(=O)Nc2cccc(OC)c2)cc1 [8d, N-(4-(N-(3-Methoxyphenyl)sulfamoyl)phenyl)acrylamide] | –
31 | 69.7 | 212 to 215 | 17.7 | C=CC(=O)Nc1ccc(S(=O)(=O)Nc2cccc(F)c2)cc1 [8e, N-(4-(N-(3-Fluorophenyl)sulfamoyl)phenyl)acrylamide] | –
32 | 89.5 | 217 to 219 | 9.48 | C=CC(=O)Nc1ccc(S(=O)(=O)Nc2cccc(Cl)c2)cc1 [8f, N-(4-(N-(3-Chlorophenyl)sulfamoyl)phenyl)acrylamide] | did not influence IDO1 expression
33 | 16.4 | 229 to 230 | – | C=CC(=O)Nc1ccc(S(=O)(=O)Nc2ncccn2)cc1 [8h, N-(4-(N-(Pyrimidin-2-yl)sulfamoyl)phenyl)acrylamide] | –
34 | 23.6 | 206 to 208 | – | C=CC(=O)Nc1ccc(S(=O)(=O)Nc2onc(C)c2C)cc1 [8i, N-(4-(N-(3,4-Dimethylisoxazol-5-yl)sulfamoyl)phenyl)acrylamide] | –
35 | 22.7 | 232 to 233 | – | C=CC(=O)Nc1ccc(S(=O)(=O)Nc2cc(C)on2)cc1 [8j, N-(4-(N-(5-Methylisoxazol-3-yl)sulfamoyl)phenyl)acrylamide] | –

Reference: PMC7336998, “Discovery of secondary sulphonamides as IDO1 inhibitors with potent antitumour effects in vivo” (Journal of Enzyme Inhibition and Medicinal Chemistry, 2020)
